These results are taken from PMC3914206.

Common to all, as to format: binding
What all share (set-up): KINOMEscan: ABL1(F317L)-phosphorylated / KINOMEscan: ABL1(H396P)-nonphosphorylated / KINOMEscan: ABL1(H396P)-phosphorylated / KINOMEscan: ABL1(M351T)-phosphorylated / KINOMEscan: ABL1(T315I)-phosphorylated / KINOMEscan: ABL1-nonphosphorylated / KINOMEscan: ABL1-phosphorylated / KINOMEscan: ACVR2A / KINOMEscan: ACVR2B / KINOMEscan: ADCK3 / KINOMEscan: ADCK4 / KINOMEscan: AKT1 / KINOMEscan: AKT3 / KINOMEscan: ALK / KINOMEscan: ARK5 / KINOMEscan: AURKA / KINOMEscan: AURKC / KINOMEscan: BIKE / KINOMEscan: BMPR1A / KINOMEscan: BMPR1B / KINOMEscan: BMX / KINOMEscan: BRK / KINOMEscan: BRSK1 / KINOMEscan: BRSK2 / KINOMEscan: CAMK1 / KINOMEscan: CAMK1D / KINOMEscan: CAMK1G / KINOMEscan: CAMK2A / KINOMEscan: CAMK2B / KINOMEscan: AAK1 / KINOMEscan: CAMK2D / KINOMEscan: CAMK2G / KINOMEscan: ABL1(F317I)-nonphosphorylated / KINOMEscan: ABL1(F317I)-phosphorylated / KINOMEscan: ABL1(F317L)-nonphosphorylated: unit: % Ctrl
Common to all, as to details: Compound Concentration 10 µM

In assay [1] the target is T1, panel of 442 kinases (Homo sapiens, UniProt P22694).
T1 construct: purchased KINOMEscan
The text has this:
(§1) We assessed the selectivity of members of this scaffold using the KINOMEscan methodology across a near comprehensive panel of 442 kinases [[18,27]].

Assay [2] concerns the target T2, panel of 442 kinases (Homo sapiens, UniProt Q9P1W9).
T2 construct: purchased KINOMEscan
Source text: as §1

The target of assay [3] is T3, panel of 442 kinases (Homo sapiens, UniProt O60285).
T3 construct: purchased KINOMEscan
T3 sequence (O60285 1-661): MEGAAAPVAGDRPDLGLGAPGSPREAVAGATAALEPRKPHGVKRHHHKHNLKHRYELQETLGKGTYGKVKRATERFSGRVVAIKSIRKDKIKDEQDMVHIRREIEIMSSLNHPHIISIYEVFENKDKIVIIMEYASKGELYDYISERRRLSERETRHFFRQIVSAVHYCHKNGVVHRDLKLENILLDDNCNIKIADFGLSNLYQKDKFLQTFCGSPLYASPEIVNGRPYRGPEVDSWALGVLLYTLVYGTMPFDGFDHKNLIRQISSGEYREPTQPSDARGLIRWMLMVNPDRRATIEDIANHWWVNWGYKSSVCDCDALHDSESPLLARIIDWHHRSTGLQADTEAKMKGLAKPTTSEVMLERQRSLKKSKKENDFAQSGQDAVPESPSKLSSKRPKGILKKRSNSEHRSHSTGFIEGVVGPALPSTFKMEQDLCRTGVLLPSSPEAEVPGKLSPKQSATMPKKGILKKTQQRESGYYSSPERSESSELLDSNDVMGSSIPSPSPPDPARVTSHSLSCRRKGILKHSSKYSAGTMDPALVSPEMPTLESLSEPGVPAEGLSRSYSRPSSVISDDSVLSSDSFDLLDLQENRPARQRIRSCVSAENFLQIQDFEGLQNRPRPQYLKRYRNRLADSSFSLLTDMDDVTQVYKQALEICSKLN
Source text: as §1

T2 sequence (Q9P1W9 whole entry): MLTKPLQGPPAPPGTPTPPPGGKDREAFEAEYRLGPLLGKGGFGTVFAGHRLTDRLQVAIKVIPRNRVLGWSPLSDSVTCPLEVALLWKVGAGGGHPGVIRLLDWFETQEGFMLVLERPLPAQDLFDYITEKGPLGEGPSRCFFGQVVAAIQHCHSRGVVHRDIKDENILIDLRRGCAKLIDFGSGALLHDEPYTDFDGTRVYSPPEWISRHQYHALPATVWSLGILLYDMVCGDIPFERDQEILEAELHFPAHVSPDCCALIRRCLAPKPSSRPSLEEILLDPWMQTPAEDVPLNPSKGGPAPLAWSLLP

`COc1cc(C(=O)N2CCC(N3CCN(C)CC3)CC2)ccc1Nc1ncc2c(n1)N(C1CCCC1)c1ccccc1C(=O)N2C` [Compound 25, 11-cyclopentyl-2-((2-methoxy-4-(4-(4-methylpiperazin-1-yl)piperidine-1-carbonyl)phenyl)amino)-5-methyl-5H-benzo[e]pyrimido[5,4-b][1,4]diazepin-6(11H)-one]: the “KINOMEscan: PKAC-beta” value at panel of 442 kinases [1] came to 100. Also, on panel of 442 kinases [2], the “KINOMEscan: PIM2” value came to 100. Further, at panel of 442 kinases [3], the “KINOMEscan: ARK5” value is on record as 90.
In the case of `COc1cc(C(=O)N2CCC(N3CCN(C)CC3)CC2)ccc1Nc1ncc2c(n1)N1CCc3cccc(c31)C(=O)N2C` [Compound 24], the “KINOMEscan: PIM2” value at panel of 442 kinases [2] was 85. Also, the “KINOMEscan: ARK5” value on panel of 442 kinases [3] is listed as 68.
Consider `COc1cc(C(=O)N2CCC(N3CCN(C)CC3)CC2)ccc1Nc1ncc2c(n1)N(C)c1ccccc1C(=O)N2C` [15 (LRRK2-IN-1)], for which, at panel of 442 kinases [1], the “KINOMEscan: PKAC-beta” value is listed as 100. Moreover, the “KINOMEscan: PIM2” value on panel of 442 kinases [2] was 100. Moreover, on panel of 442 kinases [3], the “KINOMEscan: ARK5” value amounted to 47.
On to `CCOc1cc(C(=O)N2CCC(N3CCN(C)CC3)CC2)ccc1Nc1ncc2c(n1)N(C1CCCC1)c1ccccc1C(=O)N2C` [Compound 26], for which, on panel of 442 kinases [1], the “KINOMEscan: PKAC-beta” value is recorded as 100. The “KINOMEscan: PIM2” value on panel of 442 kinases [2] worked out at 100. The “KINOMEscan: ARK5” value at panel of 442 kinases [3] is reported as 100.
